This note sets out measurements from patent publication US20250034216A1, “STEREOSELECTIVE COVALENT LIGANDS FOR ONCOGENIC AND IMMUNOLOGICAL PROTEINS” (The Scripps Research Institute, priority 2021, published 2025).

This assay deals with 20S core proteasomal complex. The experiment in a line: SEC-MS elution profile. The class given is cell-based, human. Particulars: 22Rv1 cells, 20 μM, 3 h. As to the method: Sample preparation: Cells (adherent: 15 cm dishes, suspension: 2 million cells/mL) were treated with electrophilic probes in situ for indicated times and concentrations (elaborated fragments: 20 μM, 3 h), washed with ice-cold PBS, and flash frozen in liquid nitrogen. Cell pellets were lysed by sonication (8 pulses, 40% power) in 600 μL ice-cold PBS supplemented with cOmplete protease inhibitors (1 tablet/10 mL of PBS), ultracentrifuged for 20 min at 100,000 g, then normalized to a standardized concentration (typically 1.5 to 2.5 mg/mL). Clarified lysate was injected into a Superdex 200 Increase 10/300 GL column attached to an AKTA pure FPLC system. Proteins were fractionated using an isocratic gradient (PBS) running at 0.5 mL/min into 5 fractions 2 mL wide, beginning at 8 mL and ending at 18 mL. Eluate was collected into 15 mL tubes containing 12 mL of acetone at 4C. […]
Data processing: Fractional distributions for each peptide-spectra match with a total TMT reporter ion intensity were calculated by dividing the reporter ion intensity for each TMT channel by the summed intensity across the 5 TMT channels corresponding to a single treatment condition (Equation 1). […] Euclidean distances (SE shift scores, Equation 2) were calculated using the average elution profile for each protein across replicates, combined by treatment condition and cell line. […]

Take `C=CC(=O)N1C[C@H](c2ccc(Br)cc2)[C@@H]1C(=O)Nc1cccc2cccnc12` [MY-1B, (2R,3S)-1-acryloyl-3-(4-bromophenyl)-N-(quinolin-8-yl)azetidine-2-carboxamide]: the “SEC migration of 20S core proteasomal complex subunits” value was “unaffected”.
